In PubChem BioAssay (NCI) one finds GI50 and TGI data, which are given here for 26 compounds.

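Growth conditions: 96-well plates. Treatment: test compound, 48 hours, 5 concentrations. Analysis: linear interpolation between bracketing concentrations; unreached endpoints set to highest concentration. GI50: concentration for 50% inhibition of growth. Definition used: TGI = concentration required for complete inhibition of growth.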

As usually defined, the GI50 is the concentration at which growth is held to half of that of the control. Usually TGI stands for the concentration giving total growth inhibition. Low readings indicate greater sensitivity of the cells, high ones lower sensitivity of the cells.

Experiment in all cases: DTP human tumour cell line panel, 48 h
Assay [1] has as its system OVCAR-3 ovarian.
Assay [2] has as its system TK-10 renal.
The subject of assay [3] is OVCAR-8 ovarian.
In assay [4] the test system is EKVX NSCLC.
Assay [5] relates to HCT-116 colon.
Assay [6] has as its system UACC-62 melanoma.
Assay [7] deals with HOP-92 NSCLC.
Assay [8] relates to M14 melanoma.
For assay [9], the system named is K-562 leukemia.
For assay [10], the system named is NCI-H522 lung.

Consider `CC1(O)COCCCCOc2c(CN)cccc2NC(=O)c2nc(cnc2N)-c2ccc(cc2)S(=O)(=O)C(C)(C)C1` (stereo unspecified), for which the GI50 in assay [1] was 1.23 µM; in assay [2], 1.64 µM; in [3], 1.31 µM; in [4], 1.68 µM; in assay [5], 0.129 µM; in assay [6], 1.86 µM. Moreover, the GI50 in [7] is 1.31 µM. Further, the TGI in [1] is 2.56 µM; in assay [2], 3.34 µM; in assay [3] it was 3.63 µM; in assay [4], 3.38 µM; in assay [5], 1.12 µM; in [6], 3.36 µM. The TGI in assay [7] was found to be 2.74 µM.

`Cc1ccc(N=NC(C2=NC(=O)CS2)c2nc3ccccc3[nH]2)cc1` (stereo unspecified): the TGI in assay [1], in [8], in assay [2], in [3], in assay [9] and in assay [4] was > 100 µM each time. Moreover, the TGI in [10], in [5], in assay [6] and in assay [7] was > 100 µM in each case.

With `CC1(C=O)CCC23COC4(CCC5C6(C)CCC(OC7OCC(OC8OC(CO)C(O)C(OC9OC(CO)C(O)C(O)C9O)C8OC8OCC(O)C(O)C8O)C(O)C7OC7OC(CO)C(O)C(O)C7O)C(C)(C)C6CCC5(C)C4(C)CC2O)C3C1` (stereo unspecified), the TGI in assay [1] is 2.79 µM; in [8], 2.85 µM; in [2], 3.33 µM; in assay [3], 1.48 µM; in [9], > 100 µM; in assay [4], 2.89 µM. Moreover, the TGI in assay [10] is 3.41 µM; in [5] it was 2.74 µM; in [6], 3.17 µM; in assay [7], 1.53 µM.

Take `CO/N=C(\C)c1cccc(Nc2nc3ccccc3c3occc23)c1`: the TGI in assay [1] was 33.1 µM; in [8], 30.7 µM; in [2], 26 µM; in assay [3], 33.4 µM; in assay [9], 38.2 µM; in assay [4], 26.8 µM. In addition, the TGI came to 23.8 µM in assay [5], 2.18 µM in [6] and 20.3 µM in [7].

As to `CCc1ccc2c(c1)C(=O)c1c-2n(CCCN)c(=O)c2cc([N+](=O)[O-])ccc12`, the GI50 in assay [1] was 1.58 µM; in assay [8] it was 1.56 µM; in assay [2], 1.2 µM; in [3], 1.02 µM; in assay [9] it was 0.243 µM; in [4], 1.67 µM. For the same compound, the GI50 in assay [10] is 1.23 µM; in assay [5], 0.573 µM; in assay [6] it was 1.48 µM; in assay [7], 2.34 µM. Further, the TGI in assay [1] came out at 2.96 µM; in assay [8] it was 3.08 µM; in assay [2], 2.49 µM; in assay [3], 2.35 µM; in assay [9], 0.756 µM; in [4], 3.11 µM. Besides, the TGI in assay [10] came out at 2.7 µM; in [5] it was 1.89 µM; in [6] it was 2.83 µM; in assay [7], 4.06 µM.

`CCOP(=O)(OCC)C(Nc1cccc(F)c1)c1ccc(N(C)C)cc1` (stereo unspecified): the TGI in [1], in assay [8], in assay [2], in [3], in assay [9] and in assay [4] was > 100 µM in each case. Besides, the TGI in assay [10], in assay [5], in [6] and in assay [7] was > 100 µM each time.

For `CC1CC(Br)C(=O)O1` (stereo unspecified), the TGI in [1], in assay [8], in assay [2], in assay [3], in assay [9] and in assay [4] was > 100 µM in each case. In addition, the TGI in assay [10], in assay [5], in assay [6] and in assay [7] was > 100 µM each time.

Take `COC(=O)NC1C(C)OC(OC2C/C=C(/C)C3C=CC4C(OC5CC(OC6CC(OC7CC(O)C(O)C(C)O7)C(OC7CC(O)C(OC)C(C)O7)C(C)O6)C(O)C(C)O5)C(C)CC(C)C4C3(C)/C(O)=C3\C(=O)OC4(CC(C)C(CO)=CC4/C=C\2C)C3=O)CC1(C)[N+](=O)[O-]` (stereo unspecified): the TGI in assay [8] came out at 77 µM; in assay [2] it was 40.6 µM; in assay [3], 33.4 µM; in [4], 42.8 µM; in [10] it was 49.4 µM; in assay [5], 3.09 µM. In addition, the TGI in assay [6] was 17.8 µM; in assay [7] it was 32.5 µM.

In the case of `C[N+](C)(C)CCN[N+]1(C)CCCc2ccccc21` (stereo unspecified), the TGI in assay [1], in assay [8], in [2], in assay [3], in assay [9] and in assay [4] was > 100 µM each time. The TGI was 40.3 µM in assay [10], > 100 µM in assay [5], > 100 µM in [6] and > 100 µM in assay [7].

For the compound `COc1cc([N+](=O)[O-])ccc1N1C(=O)C2c3[nH]c4ccccc4c3C3CCC(C(C)(C)C)CC3C2C1=O` (stereo unspecified), the TGI in assay [1] was > 100 µM; in [8], 40.5 µM; in assay [2], > 100 µM; in assay [3], > 100 µM; in assay [4] it was > 100 µM; in [10], > 100 µM. Moreover, the TGI in assay [5], in assay [6] and in assay [7] was > 100 µM each time.

For the compound `CS(=O)(=O)OCCN(CCOS(C)(=O)=O)c1ccc(/C=N/Nc2ncnc3nc[nH]c23)cc1`, the TGI is 39.8 µM in [1]; 34.1 µM in [8]; 63.6 µM in assay [2]; 57.7 µM in assay [3]; > 100 µM in assay [9]; 78.4 µM in assay [4]. Further, the TGI is 31.1 µM in assay [10], 59.9 µM in [5], 27.8 µM in assay [6] and 63.5 µM in [7].

On to `CCCCCCCN(CCCCCCC)CC(O)c1cc2ccccc2c2cc(Br)ccc12` (stereo unspecified), for which the TGI was 36.4 µM in assay [1]; 76.7 µM in [8]; > 100 µM in [2]; > 100 µM in [3]; > 100 µM in assay [9]; > 100 µM in assay [4]. For the same compound, the TGI in [10] is > 100 µM; in assay [5], > 100 µM; in assay [6] it was > 100 µM; in assay [7] it was 77 µM.

Turning to `CCO[C@]12CCC[C@H]1[C@@H]1C(=O)c3ccccc3C(=O)C1=C(C)O2`, the TGI in assay [1] was 50.3 µM; in assay [8], > 100 µM; in [2], > 100 µM; in [3], > 100 µM; in assay [9] it was 94.7 µM; in assay [4] it was > 100 µM. Besides, the TGI in assay [10], in [6] and in assay [7] was > 100 µM in each case.

For `c1c2c(cc3c1OCO3)-c1cc3ccc4c(c3c[n+]1CC2)OCO4`, the TGI in assay [1] was > 3.26 µM; in [8], 5.9 µM; in assay [2] it was > 12.5 µM; in assay [3] it was 4.13 µM; in [9], > 12.5 µM; in assay [4] it was > 12.5 µM. Also, the TGI in [10] was 1.8 µM; in assay [5] it was > 5.82 µM; in assay [6], > 12.5 µM; in assay [7] it was > 12.5 µM.

Turning to `Oc1ccc(-c2nc3cc(F)ccc3s2)cc1`, the TGI in assay [1] is 41.5 µM; in [8] it was 47.6 µM; in assay [2], 56 µM; in [3], > 100 µM; in assay [9], 72.3 µM; in [4] it was 38 µM. Besides, the TGI was found to be 30.7 µM in assay [10], 42.1 µM in assay [5], 36.4 µM in assay [6] and 47.1 µM in [7].

`Cc1c2cc[n+](C)cc2c(C)c2c1oc1ccccc12`: the TGI in assay [1] was 16.7 µM; in assay [8], 31.5 µM; in assay [2], 98.8 µM; in assay [3], 29.8 µM; in assay [9], 34.9 µM; in [4] it was > 42.3 µM. Also, the TGI in assay [10] is 8.17 µM; in assay [5], 24.5 µM; in assay [6], 16.5 µM; in [7] it was 32.7 µM.

With `c1ccc([P+](c2ccccc2)(c2ccccc2)c2ccc(-c3ccc([P+](c4ccccc4)(c4ccccc4)c4ccccc4)cc3)cc2)cc1`, the TGI in assay [1] was 52.4 µM; in assay [8] it was > 100 µM; in [2], > 100 µM; in assay [3] it was 85.5 µM; in [9], > 100 µM; in assay [4] it was > 100 µM. Besides, the TGI in [10] is 64.4 µM; in assay [5] it was 58 µM; in [6], > 100 µM.

Regarding `CCOC(=O)Nc1cc2c(c(N)n1)N=C(c1ccc3ccccc3c1)CN2`, the TGI in assay [1] is 10.7 µM; in assay [8], 17.5 µM; in assay [2], > 60.7 µM; in assay [3], 10.8 µM; in [9], 10.3 µM; in assay [4], > 100 µM. The TGI stood at 0.545 µM in assay [10], 1.49 µM in [5], 30.9 µM in assay [6] and 6.16 µM in [7].

Regarding `CCSc1nc(-c2cccs2)nc2ccc(I)cc12`, the TGI in assay [1], in [8], in [2], in assay [3], in assay [9] and in assay [4] was > 100 µM each time. Also, the TGI in [10], in assay [5] and in [6] was > 100 µM each time.

Consider `N=C(N)SCc1cccc([N+](=O)[O-])c1`, for which the TGI in [1] was 39.9 µM; in assay [3], > 67 µM; in assay [9], > 62.3 µM; in assay [4], > 100 µM; in assay [10], 18.2 µM; in assay [5] it was > 83.7 µM. The results for the TGI in assay [6] and in assay [7] were > 100 µM and 60.9 µM, respectively.

With `O=C(NC(Cc1ccc(I)cc1)C(=O)O)c1ccc(Cl)cc1` (stereo unspecified), the TGI in assay [1], in [3], in assay [9], in [4], in assay [10] and in assay [5] was > 100 µM each time. In addition, the TGI in [6] and in [7] was > 100 µM each time.

In the case of `NCCNCCNc1ccc(NCCNCCN)c2c1C(=O)c1c(O)ccc(O)c1C2=O`, the TGI in [1], in [8], in assay [2], in assay [3], in assay [9] and in assay [4] was > 100 µM throughout. The TGI in [10], in assay [5], in assay [6] and in assay [7] was > 100 µM in each case.

As for `COc1cc([N+](=O)[O-])ccc1NC(=O)c1cccc([N+](=O)[O-])c1O`, the TGI in [1] was > 100 µM; in [8] it was > 100 µM; in [3], > 100 µM; in assay [9], > 100 µM; in assay [4], 78.8 µM; in assay [10], 39 µM. Further, the TGI in assay [5] and in assay [6] was > 100 µM in each case.

As for `Nc1nc(OCC2CCCCC2)c2[nH]cnc2n1`, the TGI in assay [1] was 35.7 µM; in assay [8] it was 57.8 µM; in assay [2], 30.5 µM; in [3], > 100 µM; in assay [9], > 100 µM; in [4], 61.9 µM. Also, the TGI in [10] was 60.1 µM; in assay [5], 74 µM; in assay [6], > 74.6 µM; in assay [7], 42.7 µM.

On to `O=C1OC2(OC2c2ccc(Cl)cc2)c2ccccc21` (stereo unspecified), for which the TGI in [1], in assay [8], in [2], in assay [3], in assay [9] and in assay [4] was > 100 µM in each case. In addition, the TGI in assay [10], in assay [5], in assay [6] and in assay [7] was > 100 µM throughout.

As to `CNC(C)Cc1ccccc1OC` (stereo unspecified), the TGI in assay [1], in assay [8], in assay [2], in [3], in [9] and in assay [4] was > 100 µM each time. The TGI in assay [10], in [5], in [6] and in assay [7] was > 100 µM each time.
